Laboratory results reported in patent EP0672419A1, “BLOOD PRESSURE REGULATOR” (Asahi Kasei Kogyo Kabushiki Kaisha, priority 1991, dated 1995).

Test system: Adult mongrel dog
Assay: Induced hypotension in halothane-anesthetized dog, mean arterial pressure kept at 50 mmHg for 60 min (Example 5)
Format: in vivo
Description: Adult mongrel dog, mean body weight 12.7 ± 3.1 kg, was anesthesized with pentobarbital 25 mg/kg, intratarcheally cannulated and maintained anesthetic condition by 0.87% halothane-oxygen (1 MAC, minimum anesthetic concentration). Respiration was controlled, by using respirator (Harvard Corp., Model 613E ) at Paco₂ 35±5 mmHg.
Catheters were introduced to right femoral vein and artery for monitering arterial blood pressure, arterial blood gas analysis and infusion, and left cardiac catheter was introduced to left femoral […] to monitor left ventricular pressure. The changes in left ventricular pressure were differentiated continuously using a pressure processor (Nihon Koden Co., EQ-601G) to measure a maximum left ventricular systolic ratio (LV dp/dt max). The active ingredient of the present invention was administered to left femoral vein. Pulmonary arterial catheter (7F, Swan-Ganz® catheter) was introduced through right external jugular vein to monitor pulmonary artery pressure (PAP), paulmonary arterial wedge pressure (pulmonary capillary wedge pressure, PCWP) and cardiac output (CO). Pressure was monitored by using disporsable pressure monitoring kit (Gould Corp.), and electrocardiogram, arteriala pressure, left ventricle pressure (LVP) and maximum left ventricular systolic ratio (LV dp/dt max) were monitored by polygraph (Nihon Koden Co.) . Cardiac output (CO) was measured by thermal dilution method using cardiac output monitor (Nihon Koden Co Model MTC6210). Blood gas analysis was made by using automatic blood gas analyser (Radiometer Corp. ABL3). Mean artery pressure (MAP), cardiac index(CI) stroke volume index (SI), systemic vascular resistance (SVR), pulmonary vascular resistance (PVR), left ventricle stroke work index (LVSWI) and coronary perfusion pressure (CPP) were calculated by standard calculation equations, respectively.
To maintain low blood pressure, the active ingredient was intraveneously administered for 60 minutes with maintaining maximum dose at 40 µg/kg and adjusting to maintain mean arteraial pressure at 50 mmHg. Physiological saline was used for maintenance infusion and administered in combination with the active ingredient at 7 ml/kg/hr. At blood sampling two fold volume of hydroxyethylstarch (6-HES) was supplementary administered. Body temperature was maintained at 37 ± 1°C by covering with blanket.
A value at time are than 60 minutes passed after completing the start of the experiment and stabilizing a depth of anesthesia and blood flow, is set as control (S₁). Monitorings were performed at 5 min., 30 min. and 60 min. under reduced blood pressure in induced hypotension, and at 10 min., 30 min. and 60 min. after terminating the reduced blood pressure in induced hypotension (after stopping administration), for totally seven points of time.

[1] = after administration 5min., i.v., MAP kept at 50 mmHg
[2] = after administration 30min., i.v., MAP kept at 50 mmHg
[3] = after administration 60min., i.v., MAP kept at 50 mmHg
[4] = after terminating administration 10min.
[5] = after terminating administration 30min.
[6] = after terminating administration 60min.

desalanyl-deamino-c-CGRP
CI: Cardiac index [1]: 4.65 1/min/m²
CO: Cardiac output [1]: 3.67 min⁻¹
CPP: Coronary perfusion pressure [1]: 45 mmHg
CVP: Central venous pressure [1]: 4 mmHg
DAP: Diastolic artery pressure [1]: 50 mmHg
DPAP: Diastolic pulmonary artery pressure [1]: 7 mmHg
EtCO₂: Expiration terminal CO₂ pressure [1]: 37 mmHg
HR: Heart rate [1]: 143 beat/min
LV dp/dt max: maximum left ventricular systolic ratio [1]: 3000 mmHg/sec
LVEP: Left ventricle end pressure [1]: 0 mmHg
LVP: Left ventricle pressure [1]: 102 mmHg
LVSWI: Left ventricle stroke work index [1]: 26.5 g.m/beat/m²
MAP: Mean artery pressure [1]: 65 mmHg
MPAP: Mean pulmonary artery pressure [1]: 16 mmHg
PCWP: Pulmonary capillary wedge pressure [1]: 5 mmHg
PVR: Pulmonary vascular resistance [1]: 255 dynes · sec/cm⁵
RPP: Rate pressure products [1]: 13200 mmHg.beat/min
RVSWI: Right ventricle stroke work index [1]: 5.30 g.m/beat/m²
SAP: Systolic artery pressure [1]: 93 mmHg
SI: Stroke index [1]: 32.5 ml/HR/m²
SPAP: Systolic pulmonary artery pressure [1]: 29 mmHg
SV: Stroke volumes [1]: 24 mL/beat
SVR: Systemic vascular resistance [1]: 1410 dynes · sec/cm⁵
CI: Cardiac index [2]: 4.24 1/min/m²
CO: Cardiac output [2]: 3.40 min⁻¹
CPP: Coronary perfusion pressure [2]: 29 mmHg
CVP: Central venous pressure [2]: 4 mmHg
DAP: Diastolic artery pressure [2]: 34 mmHg
DPAP: Diastolic pulmonary artery pressure [2]: 5 mmHg
EtCO₂: Expiration terminal CO₂ pressure [2]: 35 mmHg
HR: Heart rate [2]: 132 beat/min
LV dp/dt max: maximum left ventricular systolic ratio [2]: 2600 mmHg/sec
LVEP: Left ventricle end pressure [2]: 0 mmHg
LVP: Left ventricle pressure [2]: 86 mmHg
LVSWI: Left ventricle stroke work index [2]: 19.7 g.m/beat/m²
MAP: Mean artery pressure [2]: 50 mmHg
MPAP: Mean pulmonary artery pressure [2]: 12 mmHg
PCWP: Pulmonary capillary wedge pressure [2]: 5 mmHg
PVR: Pulmonary vascular resistance [2]: 177 dynes · sec/cm⁵
RPP: Rate pressure products [2]: 7650 mmHg.beat/min
RVSWI: Right ventricle stroke work index [2]: 3.50 g.m/beat/m²
SAP: Systolic artery pressure [2]: 58 mmHg
SI: Stroke index [2]: 32.2 ml/HR/m²
SPAP: Systolic pulmonary artery pressure [2]: 24 mmHg
SV: Stroke volumes [2]: 23.8 mL/beat
SVR: Systemic vascular resistance [2]: 1160 dynes · sec/cm⁵
CI: Cardiac index [3]: 4.95 1/min/m²
CO: Cardiac output [3]: 3.75 min⁻¹
CPP: Coronary perfusion pressure [3]: 37 mmHg
CVP: Central venous pressure [3]: 4 mmHg
DAP: Diastolic artery pressure [3]: 43 mmHg
DPAP: Diastolic pulmonary artery pressure [3]: 7 mmHg
EtCO₂: Expiration terminal CO₂ pressure [3]: 34 mmHg
HR: Heart rate [3]: 138 beat/min
LV dp/dt max: maximum left ventricular systolic ratio [3]: 2600 mmHg/sec
LVEP: Left ventricle end pressure [3]: 0 mmHg
LVP: Left ventricle pressure [3]: 95 mmHg
LVSWI: Left ventricle stroke work index [3]: 23.4 g.m/beat/m²
MAP: Mean artery pressure [3]: 50 mmHg
MPAP: Mean pulmonary artery pressure [3]: 15 mmHg
PCWP: Pulmonary capillary wedge pressure [3]: 6 mmHg
PVR: Pulmonary vascular resistance [3]: 196 dynes · sec/cm⁵
RPP: Rate pressure products [3]: 8000 mmHg.beat/min
RVSWI: Right ventricle stroke work index [3]: 5.37 g.m/beat/m²
SAP: Systolic artery pressure [3]: 58 mmHg
SI: Stroke index [3]: 35.9 ml/HR/m²
SPAP: Systolic pulmonary artery pressure [3]: 27 mmHg
SV: Stroke volumes [3]: 26.5 mL/beat
SVR: Systemic vascular resistance [3]: 1090 dynes · sec/cm⁵
CI: Cardiac index [4]: 4.33 1/min/m²
CO: Cardiac output [4]: 3.33 min⁻¹
CPP: Coronary perfusion pressure [4]: 41 mmHg
CVP: Central venous pressure [4]: 4 mmHg
DAP: Diastolic artery pressure [4]: 49 mmHg
DPAP: Diastolic pulmonary artery pressure [4]: 7 mmHg
EtCO₂: Expiration terminal CO₂ pressure [4]: 32 mmHg
HR: Heart rate [4]: 136 beat/min
LV dp/dt max: maximum left ventricular systolic ratio [4]: 3000 mmHg/sec
LVEP: Left ventricle end pressure [4]: 0 mmHg
LVP: Left ventricle pressure [4]: 110 mmHg
LVSWI: Left ventricle stroke work index [4]: 21.7 g.m/beat/m²
MAP: Mean artery pressure [4]: 58 mmHg
MPAP: Mean pulmonary artery pressure [4]: 15 mmHg
PCWP: Pulmonary capillary wedge pressure [4]: 8 mmHg
PVR: Pulmonary vascular resistance [4]: 174 dynes · sec/cm⁵
RPP: Rate pressure products [4]: 9240 mmHg.beat/min
RVSWI: Right ventricle stroke work index [4]: 4.77 g.m/beat/m²
SAP: Systolic artery pressure [4]: 68 mmHg
SI: Stroke index [4]: 31.9 ml/HR/m²
SPAP: Systolic pulmonary artery pressure [4]: 26 mmHg
SV: Stroke volumes [4]: 23.6 mL/beat
SVR: Systemic vascular resistance [4]: 1340 dynes · sec/cm⁵
CI: Cardiac index [5]: 4.07 1/min/m²
CO: Cardiac output [5]: 3.14 min⁻¹
CPP: Coronary perfusion pressure [5]: 46 mmHg
CVP: Central venous pressure [5]: 4 mmHg
DAP: Diastolic artery pressure [5]: 53 mmHg
DPAP: Diastolic pulmonary artery pressure [5]: 8 mmHg
EtCO₂: Expiration terminal CO₂ pressure [5]: 30 mmHg
HR: Heart rate [5]: 138 beat/min
LV dp/dt max: maximum left ventricular systolic ratio [5]: 3000 mmHg/sec
LVEP: Left ventricle end pressure [5]: 0 mmHg
LVP: Left ventricle pressure [5]: 110 mmHg
LVSWI: Left ventricle stroke work index [5]: 23.7 g.m/beat/m²
MAP: Mean artery pressure [5]: 66 mmHg
MPAP: Mean pulmonary artery pressure [5]: 15 mmHg
PCWP: Pulmonary capillary wedge pressure [5]: 7 mmHg
PVR: Pulmonary vascular resistance [5]: 211 dynes · sec/cm⁵
RPP: Rate pressure products [5]: 10900 mmHg.beat/min
RVSWI: Right ventricle stroke work index [5]: 4.42 g.m/beat/m²
SAP: Systolic artery pressure [5]: 79 mmHg
SI: Stroke index [5]: 29.5 ml/HR/m²
SPAP: Systolic pulmonary artery pressure [5]: 25 mmHg
SV: Stroke volumes [5]: 21.8 mL/beat
SVR: Systemic vascular resistance [5]: 1640 dynes · sec/cm⁵
CI: Cardiac index [6]: 4.14 1/min/m²
CO: Cardiac output [6]: 3.07 min⁻¹
CPP: Coronary perfusion pressure [6]: 54 mmHg
CVP: Central venous pressure [6]: 6 mmHg
DAP: Diastolic artery pressure [6]: 61 mmHg
DPAP: Diastolic pulmonary artery pressure [6]: 8 mmHg
EtCO₂: Expiration terminal CO₂ pressure [6]: 30 mmHg
HR: Heart rate [6]: 134 beat/min
LV dp/dt max: maximum left ventricular systolic ratio [6]: 3000 mmHg/sec
LVEP: Left ventricle end pressure [6]: 0 mmHg
LVP: Left ventricle pressure [6]: 111 mmHg
LVSWI: Left ventricle stroke work index [6]: 31.1 g.m/beat/m²
MAP: Mean artery pressure [6]: 95 mmHg
MPAP: Mean pulmonary artery pressure [6]: 16 mmHg
PCWP: Pulmonary capillary wedge pressure [6]: 7 mmHg
PVR: Pulmonary vascular resistance [6]: 234 dynes · sec/cm⁵
RPP: Rate pressure products [6]: 13600 mmHg.beat/min
RVSWI: Right ventricle stroke work index [6]: 4.21 g.m/beat/m²
SAP: Systolic artery pressure [6]: 102 mmHg
SI: Stroke index [6]: 30.9 ml/HR/m²
SPAP: Systolic pulmonary artery pressure [6]: 26 mmHg
SV: Stroke volumes [6]: 22.9 mL/beat
SVR: Systemic vascular resistance [6]: 1950 dynes · sec/cm⁵
